Assays:
islets of C57/BL mice = experiment: ATP content and GSIS in islets of control C57/BL mice; type: cell-based, mouse; details: VDAC1 antibody 10 nM; for GSIS: others 20 μM (FIG. 7e); for ATP content: others 20 μM (FIG. 7d)
Description: (§1) 5 weeks old db/db mice and control (C57/bl) (Janvier Laboratory, France), weighing 18-25 g, were used throughout the experiments. They were given a standard pellet diet (B&K) and tap water ad libitum. The experimental procedures were approved by the Ethics Committee for Animal Research at Lund University. Isolation of pancreatic islets was performed by retrograde injection of a collagenase solution via the bile-pancreatic duct and islets were then collected under a stereomicroscope at room temperature.
Human pancreatic islets were collected under a stereomicroscope at room temperature and cultured at 5.5 or 20 mM glucose in the absence or presence of test agents for 72 h. Thereafter the islets were washed and preincubated for 30 min at 37° C. in Krebs Ringer bicarbonate buffer, pH 7.4, supplemented with N-2 hydroxyethylpiperazine-N′-2-ethanesulfonic acid (10 mM), 0.1% bovine serum albumin, and 1 mM glucose. Each incubation vial contained 12 islets in 1.0 ml KRB buffer solution and treated with 95% O2 and 5% CO2 to obtain constant pH and oxygenation. After preincubation, the buffer was changed to a medium containing either 1 mM or 16.7 mM glucose. The islets were then incubated for 1 h at 37° C. in a metabolic shaker (30 cycles per min). Immediately after incubation an aliquot of the medium was removed for analysis of insulin and the islets were incubated in acid-ethanol for insulin content determination by radioimmunoassay.
ATP release from isolated mouse or human islets or from INS-1 cells after transfection with mitochondrial targeted VDAC1 (mtVDAC1) or plasma membrane targeted VDAC1 (plVDAC1) plasmids was determined using a luminometric assay kit according to manufacturer's recommendation (Biovision). After incubation of islets (50/vial) or INS-1 cells for 60 min, an aliquot of the media was removed for subsequent measurements of released ATP. Then the islets or INS-1 cells were washed 3 times and the lysates were used for measurements of ATP and protein contents followed the protocol provided by the vendor.

db/db mice [1] = experiment: Daily i.p. injection of VBIT-4 in db/db and C57/BL mice (blood glucose, IPGTT); type: in vivo, mouse
Description: as §1
IPGTTs were performed in db/db and c57/bl mice after treatment with VDAC1 blocker (daily intraperitoneal injection with VBIT-4, […]) for 5 weeks. Prior to IPGTT test, the mice were fasted for 4 h. Glucose was dissolved in 0.9% NaCl and 2.0 g glucose/kg body weight was injected intraperitoneally. Serial blood sampling thereafter from vena saphena was performed at 0, 5, 15, 30 and 90 min as previously described elsewhere 35. Blood glucose was analyzed using glucose oxidase method and plasma insulin was analyzed by ELISA (Salehi, A. et al. 2008. PLoS ONE 3, e2165; Rosengren, A. H. et al. 2010. Science 327, 217-220). Total volume load was 0.3 ml. The Cumulative (area under the curve) changes in plasma glucose or insulin were calculated by subtracting the recorded values from basal (time 0).

plVDAC1 = biological target: T1, plVDAC1 (Mus musculus, UniProt Q60932); experiment: Whole-cell patch-clamp membrane conductance in INS-1 cells; type: cell-based; details: superfusion with metformin 20 μM (FIG. 4f)
T1 construct: expressed in transfected cells; host or cells: INS-1 832/13 cells (rat insulinoma), transient transfection; plasmid a gift from Dr. R. Buettner
Description: Whole-cell currents in INS-1 832/13 cells were evoked and recorded by EPC10 amplifier and Pulse software (HEKA, Lambrecht/Pfalz, Germany) as previously described (Buda P. et al. 2013. PLoS One. 8(5):e64462) with the temperature maintained at 32° C. The cells were continuously perfused with extracellular solution containing 118 mM NaCl, 20 mM tetraethylammonium chloride, 5.6 mM KCl, 2.6 mM CaCl2), 1.2 mM MgCl2, 5 mM HEPES and 5 mM glucose (pH 7.4 with NaOH) in the presence of 100 μM tolbutamide (T0891, Sigma-Aldrich). The intracellular solution consisted of 125 mM Cs-glutamate, 10 mM CsCl, 10 mM NaCl, 1 mM MgCl2, 5 mM HEPES, 3 mM Mg-ATP, 0.1 mM cAMP and 0.05 mM EGTA (pH 7.2 with CsOH). […] Conductance was measured by applying 200-ms voltage ramps from −90 mV to −50 mV. […] Data presented are from […] after the addition when steady-state was reached.
Conductance measurements were performed after at least 5 minutes exposure, and the cell dish was replaced no later than after 1 hour of perfusion. No wash-out experiments were performed in this experiment.

VDAC1 = VDAC1 (Rattus norvegicus, UniProt Q9Z2L0); experiment: Channel conductance of VDAC1 reconstituted in planar lipid bilayer
[2] = system: VDAC1 in islets from T2D donors; experiment: VDAC1 expression and localization in islets of T2D donors with documented metformin therapy; design: species or system human
Description: Donors were grouped according to HbA1c i.e. less than 6% (ND), between 6% and 6.5% (IGT), higher than 6.5% or history of diabetes (T2D). […] The islets were then hand-picked under stereomicroscope prior to use. […] Total RNA from handpicked mouse islets, human donor islets (Diabetic and non-diabetic) or [MUT] cells were extracted using RNAeasy (Qiagen, Hilden, Germany). […] Concentration and purity of total RNA was measured with a NanoDrop ND-1000 spectrophotometer (A260/A280>1.9 and A260/A230>1.4) (NanoDrop Technologies, Wilmington, Del.) and RNA Quality Indicator (RQI) higher than 8.0 (Experion Automated Electrophoresis, Bio-Rad, USA) was considered to be high-quality total RNA preparations. […] The qPCR was carried out as follows: 50° C. for 2 minutes, 95° C. for 10 minutes, 40 cycles of 95° C. for 15 seconds, and 60° C. for 1 minute. […] Isolated human or mouse islets as well as INS-1 cells were seeded on the glass-bottom dish cultured overnight. […] Primary antibodies against mouse VDAC1 (Abcam), goat VDAC2 (Abcam) and Guinea pig insulin (Eurodiagnostica) were diluted in blocking buffer and incubated overnight at 4° C. Immunoreactivity was quantified using fluorescently labeled secondary antibodies (1:200) and visualized by confocal microscopy (Carl Zeiss, Germany). The ratio is calculated by mean intensity of plasma membrane to mean intensity in cytosol, according to the formula:

[3] = system: VDAC1 mRNA in human islets; experiment: VDAC1 mRNA in non-diabetic human islets cultured under glucotoxic condition; type: cell-based; details: 72 h at 20 mM glucose, metformin 20 μM (FIG. 1d)
Description: Total RNA from handpicked mouse islets, human donor islets (Diabetic and non-diabetic) or [MUT] cells were extracted using RNAeasy (Qiagen, Hilden, Germany). […] Concentration and purity of total RNA was measured with a NanoDrop ND-1000 spectrophotometer (A260/A280>1.9 and A260/A230>1.4) (NanoDrop Technologies, Wilmington, Del.) and RNA Quality Indicator (RQI) higher than 8.0 (Experion Automated Electrophoresis, Bio-Rad, USA) was considered to be high-quality total RNA preparations. […] The qPCR was carried out as follows: 50° C. for 2 minutes, 95° C. for 10 minutes, 40 cycles of 95° C. for 15 seconds, and 60° C. for 1 minute. […] VDAC1 and VDAC2 mRNA and protein level were investigated by both qPCR and Western blotting relative to the expression of GAPDH and β-actin respectively.

db/db mice [4] = details: Cao K, et al. 2014; cited from earlier work
human ND islets = experiment: GSIS in non-diabetic human islets cultured at 5 or 20 mM glucose; type: cell-based
Source text: Human pancreatic islets were obtained through collaboration between Human Tissue Laboratory within Lund University Diabetes Centre (LUDC) and the Nordic Network for Clinical Islet Transplantation (Prof. Olle Korsgren, Uppsala University, Sweden). Donors were grouped according to HbA1c i.e. less than 6% (ND), between 6% and 6.5% (IGT), higher than 6.5% or history of diabetes (T2D). The human islets (70-90% purity) had been cultured in CMRL 1066 (ICN Biomedicals, Costa Mesa, Calif.) supplemented with 10 mM HEPES, 2 mM L-glutamine, […] gentamicin, […] fungizone (Gibco, BRL, Gaithersburg, Md.), 20 μg/ml ciprofloxacin (Bayer Healthcare, Leverkusen, Germany) and 10 mM nicotinamide at 37° C. (5% CO2) for 1 to 5 days prior to the arrival in the laboratory. The islets were then hand-picked under stereomicroscope prior to use. All procedures using human islets were approved by the ethical committees at Uppsala and Lund Universities, Sweden.
Human pancreatic islets were collected under a stereomicroscope at room temperature and cultured at 5.5 or 20 mM glucose in the absence or presence of test agents for 72 h. Thereafter the islets were washed and preincubated for 30 min at 37° C. in Krebs Ringer bicarbonate buffer, pH 7.4, supplemented with N-2 hydroxyethylpiperazine-N′-2-ethanesulfonic acid (10 mM), 0.1% bovine serum albumin, and 1 mM glucose. […]

TXNIP = details: insulin-secreting cells and endothelial cells (Shaked 2011; Li 2015); cited from earlier work

T1 sequence (Q60932 whole entry, the tested form may be a part): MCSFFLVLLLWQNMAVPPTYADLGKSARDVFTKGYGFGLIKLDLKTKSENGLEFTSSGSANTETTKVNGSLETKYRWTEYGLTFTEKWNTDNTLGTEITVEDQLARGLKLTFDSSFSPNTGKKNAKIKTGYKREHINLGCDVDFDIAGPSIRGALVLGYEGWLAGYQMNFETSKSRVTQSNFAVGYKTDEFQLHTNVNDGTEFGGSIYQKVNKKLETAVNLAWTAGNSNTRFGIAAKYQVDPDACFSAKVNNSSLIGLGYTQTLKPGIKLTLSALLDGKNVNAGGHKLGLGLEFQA
VDAC1, sequence (Q9Z2L0 whole entry): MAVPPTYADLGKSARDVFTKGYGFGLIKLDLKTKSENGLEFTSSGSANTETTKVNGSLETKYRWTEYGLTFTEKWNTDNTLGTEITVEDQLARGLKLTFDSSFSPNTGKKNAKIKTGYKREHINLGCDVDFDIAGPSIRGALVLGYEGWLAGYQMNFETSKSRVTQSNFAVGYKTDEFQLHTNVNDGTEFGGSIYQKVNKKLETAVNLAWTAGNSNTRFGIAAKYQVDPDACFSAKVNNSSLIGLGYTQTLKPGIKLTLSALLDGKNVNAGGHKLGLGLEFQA

elevated conductance in plVDAC1-transformed cells (plVDAC1) | membrane currents in control INS-1 cells (plVDAC1) | conductance of VDAC1 reconstituted into a planar lipid bilayer (VDAC1; metformin 30 μM, 10-30 min after addition (FIG. 4g)) | inhibition at 30 µM (VDAC1; read-out: inhibition of channel conductance) [%] | Structure (SMILES) | GSIS (islets of C57/BL mice) | ATP content (islets of C57/BL mice) | effects in animals with severe diabetes (db/db mice [1]; 14-week old db/db animals with severe diabetes, data not shown) | effects in control mice (db/db mice [1]; C57/BL mice, daily i.p. VBIT-4 from age 6 to 11 weeks) | glucose tolerance (IPGTT, 2 g/kg) (db/db mice [1]; db/db mice after 5 weeks VBIT-4 i.p. (FIG. 7g, 7h)) | GSIS in vivo and in isolated islets (db/db mice [1]; db/db mice after 5 weeks VBIT-4 i.p. (FIG. 7i, 7k, 7l)) | blood glucose concentrations upon VBIT-4 cessation (db/db mice [1]; db/db mice followed after 5 weeks treatment (FIG. 7f)) | development of hyperglycemia (blood glucose) (db/db mice [1]; db/db mice, daily i.p. 25 mg/kg from age 6 to 11 weeks, vs vehicle (FIG. 7f)) | water consumption and urine production (db/db mice [1]; db/db mice, early administration, data not shown) | islet VDAC1 mRNA ([2]; islets from T2D donors with documented metformin therapy (n=4)) | VDAC1 localization in β-cells ([2]; single examined T2D donor with documented metformin therapy (FIG. 3a, 3b)) | VDAC1 mRNA [3] | severity of hyperglycemia at onset of the disease (db/db mice [4]) | GSIS after culture at 5 mM glucose (human ND islets; 72 h culture with agent (FIG. 6d)) | GSIS after culture at 20 mM glucose (human ND islets; 72 h culture with agent, then 1 h at 1G or 16.7G (FIG. 6d)) | TXNIP activation by high glucose concentrations (TXNIP)
– | – | – | – | O=C(CC(CO)N1CCN(c2ccc(OC(F)(F)F)cc2)CC1)Nc1ccc(Cl)cc1 (racemic) [VBIT-4, N-(4-chlorophenyl)-4-hydroxy-3-(4-(4-(trifluoromethoxy)phenyl)-piperazin-1-yl)butanamide] | do not affect | do not affect | only marginal effects | no effects | markedly improved | markedly improved | rose gradually over several weeks | prevented the development of the severe hyperglycemia | prevented increases in water consumption and urine production | – | – | – | – | – | – | –
abrogating the elevated conductance | did not affect membrane currents | blocks conductance | 50 | CN(C)C(=N)N=C(N)N [metformin] | do not affect | do not affect | – | – | – | – | – | – | – | did not display elevated VDAC1 mRNA | remained intracellular | prevented the increase in VDAC1 mRNA | attenuates the severity of hyperglycemia | unaffected | prevented the attenuation of GSIS | inhibits TXNIP activation

From patent publication US20210130291A1, “METHODS FOR TREATING DIABETES USING VDAC1 INHIBITORS” (THE NATIONAL INSTITUTE FOR BIOTECHNOLOGY IN THE NEGEV LTD., priority 2016, published 2021)
